Experiments:
[1] = Gamma scintigraphy lung deposition, two way crossover study; details: standard treatment, 300 mg using 5 mL in a Pari nebulizer
[2] = Safety assessment in the clinical study (adverse events, local irritation); type: in vivo; details: 180 mg Tobramycin per ml, healthy subjects
Description: According to one aspect of the present disclosure, a pharmaceutical solution comprising 180 mg Tobramycin per ml water is used. This corresponds to approximately 3 fold the concentration of the solution in the marketed product (TOBI®). Tobramycin at 60 mg/mL is known to be well tolerated in healthy volunteers even at higher total dose levels; however it is considered that this increase in concentration potentially increases the risk of local irritation, but is not considered to be the primary driver for systemic exposure or systemic side effects in this study since the total dose level is lower.
Safety was assessed as well by reviewing adverse events data and vital signs data including pulse oximetry and spirometry data.

dose reaching the lungs [1]: approx. 10%
SMILES: NCC1OC(OC2C(N)CC(N)C(OC3OC(CO)C(O)C(N)C3O)C2O)C(N)CC1O [Tobramycin, (2S,3R,4S,5S,6R)-4-amino-2-{[(1S,2S,3R,4S,6R)-4,6-diamino-3-{[2R,3R,5S,6R)-3-amino-6-(aminomethyl)-5-hydroxyoxan-2-yl]oxy}-2-(hydroxymethylcyclohexyl]oxy)-6-(hydroxymethyl)oxane-3,5-diol]
local irritation [2]: only a few incidents of local irritation

Reference: patent US8598131B2, “Method for treatment of lung infections by administration of aminoglycosides by aerolisation” (priority 2010, dated 2013)
